In ChEMBL document CHEMBL5113429, “Diazepinone HBV capsid assembly modulators” (Bioorg Med Chem Lett, 2022):
≈ marks a conversion by molar mass, not a printed value. Blank lines part the entries; values can stand above or below the compound they belong to.

Key:
[1] = Intrinsic clearance in human liver microsomes; assay type: ADME, Microsome; details: read-out: CLH
[2] = Thermodynamic solubility in pH 7 buffer; assay type: physicochemical; details: read-out: Therm_solubility
[3] = AUC (0 to infinity) in Beagle dog at 2.5 mg/kg, po; assay type: ADME, organism-based, Canis lupus familiaris; design: time infinity, dose 2.5 mg/kg, route po; details: in vivo
[4] = Protein binding in rat plasma; assay type: ADME, cell-free; details: read-out: PPB (converted)
[5] = Half life in mouse at 10 mg/kg, po or 2.5 mg/kg, iv; assay type: ADME, organism-based; details: in vivo
[6] = Volume of distribution at steady state in rat at 5 mg/kg, po or 1.25 mg/kg, iv; assay type: ADME, organism-based; details: in vivo
[7] = Oral bioavailability in Beagle dog at 2.5 mg/kg; assay type: ADME, organism-based, Canis lupus familiaris; details: in vivo
[8] = Tmax in rat at 5 mg/kg, po; assay type: ADME, organism-based; details: in vivo
[9] = Intrinsic clearance in rat hepatocytes; assay type: ADME, cell-based, Hepatocyte; details: read-out: CLH
[10] = AUC (0 to infinity) in mouse at 10 mg/kg, po; assay type: ADME, organism-based; design: time infinity, dose 10 mg/kg, route po; details: in vivo
[11] = Protein binding in dog plasma; assay type: ADME, cell-free, Canis lupus familiaris; details: read-out: PPB (converted)
[12] = Cmax in rat at 5 mg/kg, po; assay type: ADME, organism-based; design: dose 5 mg/kg, route po; details: in vivo
[13] = Oral bioavailability in mouse at 10 mg/kg; assay type: ADME, organism-based; details: in vivo
[14] = Oral bioavailability in rat at 5 mg/kg; assay type: ADME, organism-based; details: in vivo
[15] = Half life in Beagle dog at 2.5 mg/kg, po or 0.5 mg/kg, iv; assay type: ADME, organism-based, Canis lupus familiaris; details: in vivo
[16] = Volume of distribution at steady state in Beagle dog at 2.5 mg/kg, po or 0.5 mg/kg, iv; assay type: ADME, organism-based, Canis lupus familiaris; details: in vivo
[17] = Intrinsic clearance in human hepatocytes; assay type: ADME, cell-based, Hepatocyte; details: read-out: CLH
[18] = Tmax in mouse at 10 mg/kg, po; assay type: ADME, organism-based; details: in vivo
[19] = Volume of distribution at steady state in mouse at 10 mg/kg, po or 2.5 mg/kg, iv; assay type: ADME, organism-based; details: in vivo
[20] = Intrinsic clearance in dog hepatocytes; assay type: ADME, cell-based, Canis lupus familiaris, Hepatocyte; details: read-out: CLH
[21] = AUC (0 to infinity) in rat at 5 mg/kg, po; assay type: ADME, organism-based; design: time infinity, dose 5 mg/kg, route po; details: in vivo
[22] = Protein binding in human plasma; assay type: ADME, cell-free; details: read-out: PPB (converted)
[23] = Half life in rat at 5 mg/kg, po or 1.25 mg/kg, iv; assay type: ADME, organism-based; details: in vivo
[24] = Intrinsic clearance in dog liver microsomes; assay type: ADME, Canis lupus familiaris, Microsome; details: read-out: CLH
[25] = Intrinsic clearance in mouse liver microsomes; assay type: ADME, Microsome; details: read-out: CLH
[26] = Lipophilicity, log D of compound; assay type: physicochemical; details: octanol/water
[27] = Tmax in Beagle dog at 2.5 mg/kg, po; assay type: ADME, organism-based, Canis lupus familiaris; details: in vivo
[28] = Cmax in mouse at 10 mg/kg, po; assay type: ADME, organism-based; design: dose 10 mg/kg, route po; details: in vivo
[29] = Intrinsic clearance in rat liver microsomes; assay type: ADME, Microsome; details: read-out: CLH
[30] = biological target: Core antigen (Hepatitis B virus) (UniProt Q03732); assay: Ratio of EC50 for modulation of capsid assembly in HBV infected in human HepG2.2.15 cells in presence of 40% normal human serum to EC50 for modulation of capsid assembly in HBV infected in human HepG2.2.15 cells in absence of 40% normal human serum; assay type: cell-based
[31] = Intrinsic clearance in mouse hepatocytes; assay type: ADME, cell-based, Hepatocyte; details: read-out: CLH
[32] = Protein binding in mouse plasma; assay type: ADME, cell-free; details: read-out: PPB (converted)
[33] = Cmax in Beagle dog at 2.5 mg/kg, po; assay type: ADME, organism-based, Canis lupus familiaris; design: dose 2.5 mg/kg, route po; details: in vivo
[34] = Modulation of capsid assembly in HBV infected in human HepG2.2.15 cells assessed as inhibition of viral DNA replication

Core antigen (Hepatitis B virus), sequence (Q03732 as listed by the source): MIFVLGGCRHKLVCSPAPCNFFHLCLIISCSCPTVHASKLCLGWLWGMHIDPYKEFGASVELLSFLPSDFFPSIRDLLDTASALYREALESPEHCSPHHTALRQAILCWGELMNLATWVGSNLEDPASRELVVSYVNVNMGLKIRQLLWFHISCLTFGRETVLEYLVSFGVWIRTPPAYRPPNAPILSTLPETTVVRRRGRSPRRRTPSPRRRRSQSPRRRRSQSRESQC

SMILES: CN1CC(OCC(F)F)Cn2nc3c(c2C1=O)CN(C(=O)Nc1ccc(F)c(Cl)c1)CC3 (racemic)
CLint scaled [1]: 5.4 mL/min/kg
solubility thermodynamic [2]: 181 µM (≈ 85.4 µg/mL)

SMILES: C[C@@H]1Cc2nn3c(c2CN1C(=O)Nc1ccc(F)c(C#N)c1)C(=O)N(C)C[C@@H](F)C3
AUC(0-inf) [3]: 7000 ng·h/mL
fraction unbound [4]: 0.38
half-life [5]: 0.51 h
Vdss [6]: 2.09 L/kg
CLint scaled [1]: < 6 mL/min/kg
bioavailability [7]: 47%
Tmax [8]: 1.33 h
CLint scaled [9]: 57 mL/min/kg
solubility thermodynamic [2]: 72 µM (≈ 29.8 µg/mL)
AUC(0-inf) [10]: 1930 ng·h/mL
fraction unbound [11]: 0.23
Cmax [12]: 98 ng/mL
bioavailability [13]: 44%
bioavailability [14]: 54%
half-life [15]: 4.3 h
Vdss [16]: 1 L/kg
CLint scaled [17]: 7.7 mL/min/kg
Tmax [18]: 0.5 h
Vdss [19]: 0.99 L/kg
CLint scaled [20]: < 6.4 mL/min/kg
AUC(0-inf) [21]: 697 ng·h/mL
fraction unbound [22]: 0.19
half-life [23]: 1.92 h
CLint scaled [24]: < 6 mL/min/kg
CLint scaled [25]: 28 mL/min/kg
logD [26]: 1.95
Tmax [27]: 2 h
Cmax [28]: 1270 ng/mL
CLint scaled [29]: 44 mL/min/kg
Ratio EC50 [30]: 1.5
CLint scaled [31]: 101 mL/min/kg
fraction unbound [32]: 0.34
Cmax [33]: 1150 ng/mL

SMILES: CN1CCCn2nc3c(c2C1=O)CN(C(=O)Nc1ccc(F)c(Cl)c1)CC3
CLint scaled [1]: 11 mL/min/kg
solubility thermodynamic [2]: 195 µM (≈ 76.4 µg/mL)

SMILES: CN1CCC(CO)n2nc3c(c2C1=O)CN(C(=O)Nc1ccc(F)c(Cl)c1)CC3 (racemic)
CLint scaled [1]: 4.7 mL/min/kg
solubility thermodynamic [2]: 195 µM (≈ 82.3 µg/mL)

SMILES: CN1C(=O)c2c3c(nn2CCC1CO)CCN(C(=O)Nc1ccc(F)c(Cl)c1)C3 (racemic)
CLint scaled [1]: 9 mL/min/kg
solubility thermodynamic [2]: 189 µM (≈ 79.7 µg/mL)

SMILES: CN1OC(CO)Cn2nc3c(c2C1=O)CN(C(=O)Nc1ccc(F)c(Cl)c1)CC3 (racemic)
CLint scaled [1]: < 7 mL/min/kg
solubility thermodynamic [2]: 169 µM (≈ 71.6 µg/mL)
EC50 [34]: 9 nM

SMILES: CN1CC(F)(F)Cn2nc3c(c2C1=O)CN(C(=O)Nc1ccc(F)c(Cl)c1)CC3
CLint scaled [1]: 8.1 mL/min/kg
solubility thermodynamic [2]: 181 µM (≈ 77.4 µg/mL)

SMILES: C[C@@H]1Cc2nn3c(c2CN1C(=O)Nc1ccc(F)c(C#N)c1)C(=O)N(C)C[C@H](F)C3
CLint scaled [1]: < 6 mL/min/kg
CLint scaled [24]: < 8 mL/min/kg
logD [26]: 1.96
CLint scaled [29]: 31 mL/min/kg

SMILES: C[C@@H]1Cc2nn3c(c2CN1C(=O)Nc1ccc(F)c(C#N)c1)C(=O)N(C)O[C@@H](CF)C3
Ratio EC50 [30]: 2

SMILES: CN1CCCCn2nc3c(c2C1=O)CN(C(=O)Nc1ccc(F)c(Cl)c1)CC3
CLint scaled [1]: 16 mL/min/kg
solubility thermodynamic [2]: > 200 µM

Continued, values first:

CLint scaled [1]: 15 mL/min/kg
solubility thermodynamic [2]: 175 µM (≈ 77.3 µg/mL)
SMILES: CN1CC(C(F)F)Cn2nc3c(c2C1=O)CN(C(=O)Nc1ccc(F)c(Cl)c1)CC3 (racemic)

CLint scaled [1]: 12 mL/min/kg
solubility thermodynamic [2]: 183 µM (≈ 75 µg/mL)
SMILES: CN1CC(F)Cn2nc3c(c2C1=O)CN(C(=O)Nc1ccc(F)c(Cl)c1)CC3 (racemic)

CLint scaled [1]: 28 mL/min/kg
solubility thermodynamic [2]: 182 µM (≈ 73.9 µg/mL)
SMILES: CC1CN(C)C(=O)c2c3c(nn2C1)CCN(C(=O)Nc1ccc(F)c(Cl)c1)C3 (racemic)

CLint scaled [1]: 26 mL/min/kg
solubility thermodynamic [2]: 179 µM (≈ 67.6 µg/mL)
SMILES: CN1CCn2nc3c(c2C1=O)CN(C(=O)Nc1ccc(F)c(Cl)c1)CC3

CLint scaled [1]: < 5 mL/min/kg
solubility thermodynamic [2]: 191 µM (≈ 80.6 µg/mL)
SMILES: CN1CC(CO)Cn2nc3c(c2C1=O)CN(C(=O)Nc1ccc(F)c(Cl)c1)CC3 (racemic)

CLint scaled [1]: 14 mL/min/kg
solubility thermodynamic [2]: 187 µM (≈ 81.3 µg/mL)
SMILES: CN1CC(N(C)C)Cn2nc3c(c2C1=O)CN(C(=O)Nc1ccc(F)c(Cl)c1)CC3 (racemic)

CLint scaled [1]: 5 mL/min/kg
solubility thermodynamic [2]: 170 µM (≈ 77.4 µg/mL)
SMILES: CN1CC(F)Cn2nc3c(c2C1=O)CN(C(=O)Nc1ccnc(Br)c1F)CC3 (racemic)

CLint scaled [1]: 5.2 mL/min/kg
solubility thermodynamic [2]: 179 µM (≈ 71.7 µg/mL)
SMILES: CN1CC(F)Cn2nc3c(c2C1=O)CN(C(=O)Nc1ccc(F)c(C#N)c1)CC3 (racemic)

CLint scaled [1]: 22 mL/min/kg
solubility thermodynamic [2]: 191 µM (≈ 86.8 µg/mL)
SMILES: CN1CC(F)Cn2nc3c(c2C1=O)CN(C(=O)Nc1ccc(F)c(Br)c1)CC3 (racemic)

CLint scaled [1]: 17 mL/min/kg
solubility thermodynamic [2]: 175 µM (≈ 77.6 µg/mL)
SMILES: CN1CC(F)Cn2nc3c(c2C1=O)CN(C(=O)Nc1ccc(F)c(C(F)(F)F)c1)CC3 (racemic)
